Where “and” joins values, the source holds several entries; their conditions need not be identical. Equal values may be shown once. Each block holds one compound with its values, some of them ahead of it.
Experiments:
PK36 = assay: 32P kinase assay, ATP dependence and inhibition of PK36 activity with dephosphorylated NF-M as substrate; format: biochemical, bovine; details: % of control
Method: An alternative method for assaying the phosphorylating activity of the kinases was by ^32P assays. Radioactive assays in the same buffer system as for immunoassays contained 5 µg of HTP-purified native NF-triplet as substrate (3µg of substrate proteins other than NFs) and 150-250 cpm/pmole gamma-^32P-ATP. […] The glass filters were washed twice for 1 hour and once for at least 3 hours in 10% TCA/2% PPA and finally in ethanol and were air-dried. Radioactivity was assessed by scintillation counting (Beckman LS 230) with 5 ml "Liquiscint" (National Diagnostics) for 20 minutes. Assays were routinely carried out in triplicate except for some duplicate assays in a few explicitly mentioned cases; a control assay lacking NFs was subtracted from the mean value.

PK40 = assay: 32P kinase assay, ATP dependence and inhibition of PK40 activity with dephosphorylated NF-M as substrate; format: biochemical, bovine; details: for relative activity [%] of PK40: % of control
Method: An alternative method for assaying the phosphorylating activity of the kinases was by ^32P assays. Radioactive assays in the same buffer system as for immunoassays contained 5 µg of HTP-purified native NF-triplet as substrate (3µg of substrate proteins other than NFs) and 150-250 cpm/pmole gamma-^32P-ATP. Incubation times were 15 minutes at 37°C for activities up to about 1 pmole/min/assay, since the assay responses were linear within these time intervals. Assays were stopped by cooling on ice, addition of 20 µl 25 mM EDTA and immediate transfer of the mixture onto glass filters (Whatman GF/A) wetted with 10% TCA/2% sodium pyrophosphate (PPA). The glass filters were washed twice for 1 hour and once for at least 3 hours in 10% TCA/2% PPA and finally in ethanol and were air-dried. Radioactivity was assessed by scintillation counting (Beckman LS 230) with 5 ml "Liquiscint" (National Diagnostics) for 20 minutes. Assays were routinely carried out in triplicate except for some duplicate assays in a few explicitly mentioned cases; a control assay lacking NFs was subtracted from the mean value.
The ATP dependence and inhibition of the activities of PK40 and PK36 were determined at 2 mM Mg^2+ with soluble dephosphorylated NF-M as second substrate to avoid uncertainties arising from the aggregation state of NF-triplet in suspension. The optima were at 0.5 - 1 mM ATP for both kinases. Apparent Km values for ATP of both kinases were estimated from Woolf-Hanes plots (Dixon and Webb, 1979) for a range of ATP concentrations sufficiently below the onset of inhibition. […] The apparent Km of PK36 was approximately 50 µM.

[1] = molecular target: kinase PK40 (bovine brain) (bovine); assay: cell-based or functional assay
[2] = molecular target: KSP-phosphorylating kinases; assay: Immuno-dotblot assay (SMI-31/SMI-34) of crude enzyme with dephosphorylated NF-triplet; format: biochemical, bovine; details: ATP [5mM]
Method: The preferred method for the immunoassay for detecting KSP-phosphorylating kinases is as follows. Dephosphorylated NF-triplet protein was incubated with the 35-45% ammonium sulfate fraction of the brain supernatant (see section B.). Immuno-dotblot assays were performed in 50 mM HEPES, pH 7.0, 2 mM MgCl2, […], 2 mM DTT in a total volume of 30 µl with 5 µg of dephosphorylated native NF-triplet or 1.2 µg of dephosphorylated pure subunits NF-M or NF-H as substrates together with a control assay lacking NFs. After incubation at 37°C for 18 hours, assays were diluted to 100 µl with 10 mM PBS, pH 7.2, and aliquots of 50 µl were spotted on nitrocellulose (0.22µm, Schleicher and Schüll). Blots were blocked by 1 hour incubation with 3% BSA in 10mM PBS, pH 7.2, and washed once in 0.5% Triton-X100/10 mM PBS. Antibodies were diluted in sterile 10 mM PBS, pH 7.2, 0.5% Triton-X100, 10% fetal calf serum. Blots were incubated with SMI mAbs for at least 2 hours. The blots were then washed five times. Mouse mAbs were detected by reaction with horseradish-peroxidase-linked goat-anti-mouse antibody (Cappel Co.) in 1:200 dilution and by staining with 0.05% 4-chloro-1-naphthol (Sigma) and 0.05% H2O2 in 50 mM TBS, pH 7.5, 33% ethanol for 5-20 minutes. All incubations and washes were at room temperature. Incubations were sealed in plastic bags with 50 µl of solution/cm^2 membrane. […]

Compound: [Cl-].[Na+] [NaCl, sodium chloride]
- relative activity [%] of PK36 (PK36; NaCl 150mM, 15 min, 150000 µM): 40% and 40±0.8%
- relative activity [%] of PK40 (PK40; NaCl 150mM, 15 min, 150000 µM): 27% and 27±1.8%

- relative activity [%] at Walsh Inhibitor 1.5 [M, as printed] (% of the control) [1]: 107
- relative activity [%] at Walsh Inhibitor 4.5 [M, as printed] (% of the control) [1]: 102
- relative activity [%] at Walsh Inhibitor 45 [M, as printed] (% of the control) [1]: 101
Compound: Walsh inhibitor

Compound: ATP
- kinase activity (reconstitution of SMI-31 and SMI-34 epitopes) [2]: inhibited
- relative activity [%] of PK36 (PK36; 5mM Mg^2, 5mM ATP): 38±2.2%
- relative activity [%] of PK40 (PK40; 5mM Mg^2, 5mM ATP): 78±7.1%
- inhibition of PK40 by an excess of ATP (PK40; ATP in relatively small excess over Mg^2+): strongly inhibited
- Km (PK40; PK40, 2 mM Mg^2+, Woolf-Hanes plots, mean ± S.D. of three determinations at three NF-M concentrations, read-out: apparent Km value for ATP): 93 ± 12 µM

Reference: patent EP1026237B1, “Use of an inhibitor of Tau/neurofilament protein kinase PK40” (Massachusetts Institute Of Technology, priority 1991, dated 1993)
